Test results taken from patent US11878975B2, “Substituted indole compounds useful as TLR inhibitors” (BRISTOL-MYERS SQUIBB COMPANY, priority 2017, dated 2024).

Tests used:
Type in all cases: cell-based
[1] = target: T1, human TLR9 (Homo sapiens, UniProt Q9NR96); assay: TLR9 inhibition reporter assay (HEK-Blue cells, SEAP reporter, ODN2006 stimulation); settings: HEK-Blue cells overexpressing human TLR9, SEAP reporter, ODN2006 5 nM
T1 construct: host or cells: HEK-Blue cells
T1 sequence (Q9NR96 26-1032): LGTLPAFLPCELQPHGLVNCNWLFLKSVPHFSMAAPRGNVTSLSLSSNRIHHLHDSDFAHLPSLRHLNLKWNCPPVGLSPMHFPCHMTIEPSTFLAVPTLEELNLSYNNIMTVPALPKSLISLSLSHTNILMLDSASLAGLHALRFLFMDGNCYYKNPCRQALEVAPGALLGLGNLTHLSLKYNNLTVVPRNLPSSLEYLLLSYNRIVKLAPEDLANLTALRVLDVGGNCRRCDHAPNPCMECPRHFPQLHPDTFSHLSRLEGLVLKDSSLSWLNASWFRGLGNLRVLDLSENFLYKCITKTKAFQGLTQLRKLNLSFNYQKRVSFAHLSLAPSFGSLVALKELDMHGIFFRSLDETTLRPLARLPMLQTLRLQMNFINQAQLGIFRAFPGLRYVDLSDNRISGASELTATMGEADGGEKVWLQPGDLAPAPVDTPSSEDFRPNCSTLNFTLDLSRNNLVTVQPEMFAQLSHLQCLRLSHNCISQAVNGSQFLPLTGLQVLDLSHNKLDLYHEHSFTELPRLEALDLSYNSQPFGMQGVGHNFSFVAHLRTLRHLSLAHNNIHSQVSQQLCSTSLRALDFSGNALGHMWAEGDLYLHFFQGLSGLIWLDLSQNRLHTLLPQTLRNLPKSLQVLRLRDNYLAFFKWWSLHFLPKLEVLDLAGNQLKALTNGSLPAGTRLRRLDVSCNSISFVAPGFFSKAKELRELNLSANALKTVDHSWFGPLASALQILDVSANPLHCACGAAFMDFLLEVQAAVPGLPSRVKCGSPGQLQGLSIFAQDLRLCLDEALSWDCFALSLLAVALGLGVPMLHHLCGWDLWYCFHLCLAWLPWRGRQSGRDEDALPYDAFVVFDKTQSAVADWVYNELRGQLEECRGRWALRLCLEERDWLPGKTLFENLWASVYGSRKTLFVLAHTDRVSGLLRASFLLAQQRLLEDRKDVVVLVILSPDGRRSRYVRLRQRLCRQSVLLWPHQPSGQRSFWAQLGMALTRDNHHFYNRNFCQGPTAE
Summary of the method: (§1)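 HEK-Blue cells with NF-κB/AP-1-driven SEAP reporter, pre-treated 30 min at room temperature with compound (0.05 nM-50 μM). Stimulants: gardiquimod 7.5 μM (TLR7), R848 15.9 μM (TLR8) or ODN2006 5 nM (TLR9). SEAP measured after 22 h at 37° C.; percent inhibition versus agonist-plus-DMSO and known-inhibitor wells.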

[2] = target: T2, human TLR8 (Homo sapiens, UniProt Q9NR97); assay: TLR8 inhibition reporter assay (HEK-Blue cells, SEAP reporter, R848 stimulation); settings: HEK-Blue cells overexpressing human TLR8, SEAP reporter, R848 15.9 μM
T2 construct: host or cells: HEK-Blue cells
T2 sequence (Q9NR97 27-1041): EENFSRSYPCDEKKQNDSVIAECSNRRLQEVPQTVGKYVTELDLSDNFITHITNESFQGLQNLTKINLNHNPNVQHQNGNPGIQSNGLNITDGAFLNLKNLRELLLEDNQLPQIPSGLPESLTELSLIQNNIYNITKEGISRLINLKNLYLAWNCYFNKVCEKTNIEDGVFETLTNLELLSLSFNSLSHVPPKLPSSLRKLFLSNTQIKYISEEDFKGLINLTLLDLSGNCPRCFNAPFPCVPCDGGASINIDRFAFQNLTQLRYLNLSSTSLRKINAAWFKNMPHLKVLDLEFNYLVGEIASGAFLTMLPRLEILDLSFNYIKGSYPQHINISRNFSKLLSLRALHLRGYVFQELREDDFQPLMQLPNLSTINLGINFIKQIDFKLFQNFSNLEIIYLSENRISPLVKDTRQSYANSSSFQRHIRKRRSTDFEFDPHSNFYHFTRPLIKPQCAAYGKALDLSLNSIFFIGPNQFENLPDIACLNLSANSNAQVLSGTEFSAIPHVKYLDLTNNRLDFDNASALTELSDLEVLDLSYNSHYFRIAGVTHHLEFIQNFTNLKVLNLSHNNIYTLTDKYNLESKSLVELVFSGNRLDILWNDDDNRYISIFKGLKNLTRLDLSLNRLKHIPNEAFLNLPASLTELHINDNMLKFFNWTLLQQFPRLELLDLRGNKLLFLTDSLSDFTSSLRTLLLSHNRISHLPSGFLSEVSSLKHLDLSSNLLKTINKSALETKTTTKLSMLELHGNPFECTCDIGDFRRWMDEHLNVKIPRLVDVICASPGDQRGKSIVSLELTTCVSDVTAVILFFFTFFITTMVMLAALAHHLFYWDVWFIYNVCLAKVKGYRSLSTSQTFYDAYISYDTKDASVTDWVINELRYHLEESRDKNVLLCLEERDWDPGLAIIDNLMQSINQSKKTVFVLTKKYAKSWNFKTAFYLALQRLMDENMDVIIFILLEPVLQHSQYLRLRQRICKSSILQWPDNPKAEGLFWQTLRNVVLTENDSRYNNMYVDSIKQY
Summary of the method: as §1

[3] = target: T3, human TLR7 (Homo sapiens, UniProt Q9NYK1); assay: TLR7 inhibition reporter assay (HEK-Blue cells, SEAP reporter, gardiquimod stimulation); settings: HEK-Blue cells overexpressing human TLR7, SEAP reporter, gardiquimod 7.5 μM
T3 construct: host or cells: HEK-Blue cells
T3 sequence (Q9NYK1 27-1049): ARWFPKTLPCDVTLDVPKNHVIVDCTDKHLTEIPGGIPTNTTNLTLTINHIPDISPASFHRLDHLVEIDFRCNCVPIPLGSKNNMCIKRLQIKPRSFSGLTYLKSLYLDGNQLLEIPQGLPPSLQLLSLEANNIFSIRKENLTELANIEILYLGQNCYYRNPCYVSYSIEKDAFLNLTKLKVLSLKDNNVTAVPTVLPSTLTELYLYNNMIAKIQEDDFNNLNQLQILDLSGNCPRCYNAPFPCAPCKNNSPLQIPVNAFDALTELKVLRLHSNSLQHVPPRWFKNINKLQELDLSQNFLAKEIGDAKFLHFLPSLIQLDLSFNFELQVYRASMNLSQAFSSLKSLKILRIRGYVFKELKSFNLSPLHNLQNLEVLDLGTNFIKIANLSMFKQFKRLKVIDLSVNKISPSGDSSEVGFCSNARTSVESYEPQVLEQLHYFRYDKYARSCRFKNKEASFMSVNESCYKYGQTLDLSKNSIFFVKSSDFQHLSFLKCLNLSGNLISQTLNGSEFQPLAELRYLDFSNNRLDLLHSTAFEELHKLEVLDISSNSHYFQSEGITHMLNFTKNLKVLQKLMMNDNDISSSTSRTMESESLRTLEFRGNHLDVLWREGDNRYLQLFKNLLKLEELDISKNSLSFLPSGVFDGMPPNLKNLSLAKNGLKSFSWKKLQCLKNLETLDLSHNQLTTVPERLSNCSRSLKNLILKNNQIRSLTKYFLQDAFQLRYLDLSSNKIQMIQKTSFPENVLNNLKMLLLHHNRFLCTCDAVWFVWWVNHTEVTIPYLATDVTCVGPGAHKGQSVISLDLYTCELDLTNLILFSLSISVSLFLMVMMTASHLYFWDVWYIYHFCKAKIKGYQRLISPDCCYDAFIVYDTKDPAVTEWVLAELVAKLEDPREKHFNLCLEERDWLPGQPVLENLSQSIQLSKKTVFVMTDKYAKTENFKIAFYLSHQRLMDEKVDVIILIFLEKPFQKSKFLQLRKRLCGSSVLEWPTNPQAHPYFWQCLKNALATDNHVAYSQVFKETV
Summary of the method: as §1

Row | IC50 [1] | IC50 [2] | IC50 [3] | Compound
1 | 2550 nM | 0.62 nM | 0.7 nM | Cc1c(-c2[nH]c3ccc(C4CNCCO4)cc3c2C(C)C)cn2ncnc2c1C (stereo not drawn) [Example 287]
2 | > 50000 nM | 21 nM | 46 nM | Cc1c(-c2[nH]c3ccc(C4CN(CC(=O)N(C)C)CCO4)cc3c2C(C)C)cn2ncnc2c1C (stereo not drawn) [Example 312]
3 | 4550 nM | 0.62 nM | 0.32 nM | COc1cc(-c2[nH]c3ccc(C4CC(NC(=O)CN(C)C)C4)cc3c2C(C)C)cn2ncnc12 (stereo not drawn) [Example 569]
4 | 888 nM | 20 nM | 14 nM | Cc1cc(-c2[nH]c3ccc(C4CN(C5CCS(=O)(=O)CC5)C4)cc3c2C(C)C)cc(C)n1 [Example 270]
5 | > 50000 nM | 54 nM | 35 nM | CNC(=O)CN1CCOC(c2ccc3[nH]c(-c4cc(C)nc(C)c4)c(C(C)C)c3c2)C1 (stereo not drawn) [Example 323]
6 | 3330 nM | 3.4 nM | 1 nM | Cc1c(-c2[nH]c3ccc(C4CN(C(=O)CN(C)C)CCO4)cc3c2C(C)C)cn2ncnc2c1C (stereo not drawn) [Example 330]
7 | 5200 nM | 15 nM | 18 nM | Cc1c(-c2[nH]c3ccc(C4CN(CCCC(F)(F)F)C4)cc3c2C(C)C)cn2cnnc2c1C [Example 554]
8 | 303 nM | 18 nM | 7 nM | CN[C@@H](C)C(=O)N1CCCC(c2ccc3[nH]c(-c4cc(C)nc(C)c4)c(C(C)C)c3c2)C1 (stereo partly drawn) [Example 216]
9 | 1470 nM | 10 nM | 31 nM | COc1ccc(-c2[nH]c3ccc(C4CCCNC4)cc3c2C(C)C)cc1OC (stereo not drawn) [Example 592]
10 | 6380 nM | 8.1 nM | 4 nM | COc1cc(-c2[nH]c3ccc(C4CCCN(CC(N)=O)C4)cc3c2C(C)C)cn2ncnc12 (stereo not drawn) [Example 229]
11 | 33600 nM | 38 nM | 5 nM | COc1cc(-c2[nH]c3ccc(C4CCC(N5CC(F)(F)C5)CC4)cc3c2C(C)C)cn2ncnc12 (stereo not drawn) [Example 18]
12 | 2180 nM | 42 nM | 8 nM | Cc1c(-c2[nH]c3ccc(C4CN(C)C4)cc3c2C(C)C)cn2cnnc2c1C [Example 533]
13 | 4870 nM | 10 nM | 2 nM | CNC(=O)CN1CCCC(c2ccc3[nH]c(-c4cc(OC)c5ncnn5c4)c(C(C)C)c3c2)C1 (stereo not drawn) [Example 228]
14 | 1310 nM | 16 nM | 2 nM | Cc1c(-c2[nH]c3ccc(C4CCC(NCC(=O)N(C)C)CC4)cc3c2C(C)C)cn2cnnc2c1C (stereo not drawn) [Example 518]
15 | > 50000 nM | 60 nM | 25 nM | CNC(=O)CN1CCOC(c2ccc3[nH]c(-c4cn5ncnc5c(C)c4C)c(C(C)C)c3c2)C1 (stereo not drawn) [Example 313]
16 | 5100 nM | 1.2 nM | 3 nM | Cc1c(-c2[nH]c3ccc(C4CC(N)C4)cc3c2C(C)C)cn2ncnc2c1C (stereo not drawn) [Example 542]
17 | 1240 nM | 1.9 nM | 18 nM | Cc1cc(-c2[nH]c3ccc(C4CCCNC4)cc3c2C(C)C)ccn1 (stereo not drawn) [Example 185]
18 | 2070 nM | 1.8 nM | 0.75 nM | Cc1c(-c2[nH]c3ccc(C4CCC(N(C)C)CC4)cc3c2C(C)C)cn2ncnc2c1C (stereo not drawn) [Example 105]
19 | 3170 nM | 45 nM | 6 nM | Cc1cc(-c2[nH]c3ccc(C4CCC(N)CC4)cc3c2C(C)C)cn2ncnc12 (single isomer, unassigned) [Example 4]
20 | 1960 nM | 0.76 nM | 0.21 nM | COc1cc(-c2[nH]c3ccc(C4CCC(NC5(C)COC5)CC4)cc3c2C(C)C)cn2ncnc12 (single isomer, unassigned) [Example 44]
21 | 1240 nM | 0.75 nM | 0.81 nM | COc1cc(-c2[nH]c3ccc(C4CCCN(C)C4)cc3c2C(C)C)cn2ncnc12 (stereo not drawn) [Example 238]
22 | 23700 nM | 4.6 nM | 3 nM | Cc1c(-c2[nH]c3ccc(C4CCC(NC(=O)CN(C)C)CC4)cc3c2C(C)C)cn(C)c(=O)c1C (stereo not drawn) [Example 472]
23 | 15500 nM | 1.3 nM | 0.92 nM | Cc1c(-c2[nH]c3ccc(C4CNC(C)(C)CO4)cc3c2C(C)C)cn2ncnc2c1C (stereo not drawn) [Example 371]
24 | 5880 nM | 2.9 nM | 2 nM | CNCC(=O)N1CCCC(c2ccc3[nH]c(-c4cn5ncnc5c(C)c4C)c(C(C)C)c3c2)C1 (stereo not drawn) [Example 214]
25 | 20500 nM | 23 nM | 5 nM | COc1cc(-c2[nH]c3ccc(C4CCC(N5CCCC(F)(F)C5)CC4)cc3c2C(C)C)cn2ncnc12 (stereo not drawn) [Example 34]
26 | 11100 nM | 21 nM | 12 nM | Cc1c(-c2[nH]c3ccc(C4CCC(NC5COC5)CC4)cc3c2C(C)C)cn2cnnc2c1C (stereo not drawn) [Example 524]
27 | 19800 nM | 38 nM | 7 nM | COc1cc(-c2[nH]c3ccc(C4CCC(NCC(F)(F)F)CC4)cc3c2C(C)C)cn2ncnc12 (single isomer, unassigned) [Example 108]
